Measured values as given in patent US20090022806A1, “Nanoparticle and polymer formulations for thyroid hormone analogs, antagonists and formulations and uses thereof” (priority 2006, published 2009).
“And” between values parts separate entries of the source, which are not always exact repeats. Equal entries are not always repeated. “Also recorded” adds a separate entry of the source.

Key:
[1] = system: Human dermal micro-vascular endothelial cells (HDMEC); assay: Three-dimensional human micro-vascular endothelial sprouting assay; format: cell-based
Experimental: In Vitro Three-Dimensional Sprout Angiogenesis of Human Dermal Micro-Vascular Endothelial Cells (HDMEC) Cultured on Micro-Carrier Beads Coated with Fibrin: Confluent HDMEC (passages 5-10) were mixed with gelatin-coated Cytodex-3 beads with a ratio of 40 cells per bead. Cells and beads (150-200 beads per well for 24-well plate) were suspended with 5 ml EBM+15% normal human serum, mixed gently every hour for first 4 hours, then left to culture in a CO2 incubator overnight. The next day, 10 ml of fresh EBM+5% HS were added, and the mixture was cultured for another 3 hours. Before experiments, the culture of EC-beads was checked; then 500 ul of PBS was added to a well of 24-well plate, and 100 ul of the EC-bead culture solution was added to the PBS. The number of beads was counted, and the concentration of EC/beads was calculated.
A fibrinogen solution (1 mg/ml) in EBM medium with or without angiogenesis factors or testing factors was prepared. For positive control, 50 ng/ml VEGF+25 ng/ml FGF2 was used. EC-beads were washed with EBM medium twice, and EC-beads were added to fibrinogen solution. The experiment was done in triplicate for each condition. The EC-beads were mixed gently in fibrinogen solution, and 2.5 ul human thrombin (0.05 U/ul) was added in 1 ml fibrinogen solution; 300 ul was immediately transferred to each well of a 24-well plate. The fibrinogen solution polymerizes in 5-10 minutes; after 20 minutes, we added EBM+20% normal human serum+10 ug/ml aprotinin. The plate was incubated in a CO2 incubator. It takes about 24-48 hours for HDMEC to invade fibrin gel and form tubes.
A micro-carrier in vitro angiogenesis assay previously designed to investigate bovine pulmonary artery endothelial cell angiogenic behavior in bovine fibrin gels [Nehls and Drenckhahn, 1995a, b] was modified for the study of human microvascular endothelial cell angiogenesis in three-dimensional ECM environments (FIGS. 1 and 2). Briefly, human fibrinogen, isolated as previously described [Feng et al, 1999], was dissolved in M199 medium at a concentration of 1 mg/ml (pH 7.4) and sterilized by filtering through a 0.22 micron filter. An isotonic 1.5 mg/ml collagen solution was prepared by mixing sterile Vitrogen 100 in 5×M199 medium and distilled water. The pH was adjusted to 7.4 by 1N NaOH. In certain experiments, growth factors and ECM proteins (such as VEGF, bFGF, PDGF-BB, serum, gelatin, and fibronectin) were added to the fibrinogen or collagen solutions. About 500 EC-beads were then added to the 1 mg/ml fibrinogen or 1.5 mg/ml collagen solutions. Subsequently, EC-beads-collagen or EC-beads-fibrinogen suspension (500 EC-beads/ml) was plated onto 24-well plates at 300 ul/well. EC-bead-collagen cultures were incubated at 37° C. to form gel. The gelling of EC-bead-fibrin cultures occurred in less than 5 minutes at room temperature after the addition of thrombin to a final concentration of 0.5 U/ml. After gelation, 1 ml of fresh assay medium (EBM supplemented with 20% normal human serum for HDMEC or EBM supplemented with 10% fetal bovine serum was added to each well. The angiogenic response was monitored visually and recorded by video image capture. Specifically, capillary sprout formation was observed and recorded with a Nikon Diaphot-TMD inverted microscope (Nikon Inc.; Melville, N.Y.), equipped with an incubator housing with a Nikon NP-2 thermostat and Sheldon #2004 carbon dioxide flow mixer. The microscope was directly interfaced to a video system consisting of a Dage-MTI CCD-72S video camera and Sony 12″ PVM-122 video monitor linked to a Macintosh G3 computer. The images were captured at various magnifications using Adobe Photoshop. The effect of angiogenic factors on sprout angiogenesis was quantified visually by determining the number and percent of EC-beads with capillary sprouts. One hundred beads (five to six random low power fields) in each of triplicate wells were counted for each experimental condition. All experiments were repeated at least three times. […]

[2] = system: chick chorioallantoic membrane (CAM); assay: Chick chorioallantoic membrane (CAM) assay of angiogenesis; format: in vivo; details: for effect on angiogenesis produced by T4: PTU applied to filter disks (1 mmol/L)
Experimental: Chorioallantoic membrane (CAM) Model of Angiogenesis: In vivo Neovascularization was examined by methods described previously. 9-12 Ten-day-old chick embryos were purchased from SPAFAS (Preston, Conn.) and incubated at 37° C. with 55% relative humidity. A hypodermic needle was used to make a small hole in the shell concealing the air sac, and a second hole was made on the broad side of the egg, directly over an avascular portion of the embryonic membrane that was identified by candling. A false air sac was created beneath the second hole by the application of negative pressure at the first hole, causing the CAM to separate from the shell. A window approximately 1.0 cm 2 was cut in the shell over the dropped CAM with a small-crafts grinding wheel (Dremel, division of Emerson Electric Co.), allowing direct access to the underlying CAM. FGF2 (1 μg/mL) was used as a standard proangiogenic agent to induce new blood vessel branches on the CAM of 10-day-old embryos. Sterile disks of No. 1 filter paper (Whatman International) were pretreated with 3 mg/mL cortisone acetate and 1 mmol/L PTU and air dried under sterile conditions. Thyroid hormone, hormone analogues, FGF2 or control solvents, and inhibitors were then applied to the disks and the disks allowed to dry. The disks were then suspended in PBS and placed on growing CAMs. […] At 24 hours, the MAPK cascade inhibitor PD 98059 was also added to CAMs topically by means of the filter disks.
After incubation at 37° C. with 55% relative humidity for 3 days, the CAM tissue directly beneath each filter disk was resected from control and treated CAM samples. Tissues were washed 3× with PBS, placed in 35-mm Petri dishes (Nalge Nunc), and examined under an SV6 stereomicroscope (Zeiss) at ×50 magnification. Digital images of CAM sections exposed to filters were collected using a 3-charge-coupled device color video camera system (Toshiba) and analyzed with Image-Pro software (Media Cybernetics). The number of vessel branch points contained in a circular region equal to the area of each filter disk were counted. One image was counted in each CAM preparation, and findings from 8 to 10 CAM preparations were analyzed for each treatment condition (thyroid hormone or analogues, FGF2, FGF2 antibody, PD 98059). In addition, each experiment was performed 3 times. The resulting angiogenesis index is the mean±SEM of new branch points in each set of samples.
Ten-day-old chick embryos were purchased £tom SPAFAS (Preston, Conn.) and were incubated at 37° C. with 55% relative humidity. A hypodermic needle was used to make a small hole in the blunt end of the egg and a second hole was made on the broad side of the egg, directly over an avascular portion of the embryonic membrane. Mild suction was applied to the first hole to displace the air sac and drop the CAM away from the shell. Using a Dremel model craft drill (Dremel, Racine, Wis.), a approx. 1.0 cm^2 window was cut in the shell over the false air sac, allowing access to the CAM. Sterile disks of No. 1 filter paper (Whatman, Clifton, N.J.) were pretreated with 3 mg/ml cortisone acetate and 1 mMm propylthiouracil and air dried under sterile conditions. […] The disks were then suspended in PBS and placed on growing CAMS. After incubation for 3 days, the CAM beneath the filter disk was resected and rinsed with PBS. Each membrane was placed in a 35 mm Petri dish and examined under an SV6 stereo-microscope at 50× magnification. Digital images were captured and analyzed with Image-Pro software (Mediacybemetics). The number of vessel branch points contained in a circular region equal to the filter disk were counted. One image from each of 8-10 CAM preparations for each treatment condition was counted, and in addition each experiment was performed 3 times.
Ten-day-old chick embryos were purchased from SPAFAS (Preston, Conn.) and were incubated at 37° C. with 55% relative humidity. Chick CAM assays were performed as previously described.

[3] = system: phosphorylated ERK1/2 in ECV304 endothelial cells; assay: MAPK (ERK1/2) activation in ECV304 cells, nuclear pERK1/2 immunoblot; format: cell-based; details: PD 98059 30 μmol/L or CGP41251 100 nmol/L for 30 minutes before 10^−7 M T4
Experimental: ECV304 endothelial cells were cultured in M199 medium with 0.25% hormone-depleted serum 13 for 2 days. […] Nuclear fractions were pre-pared from all samples by our method reported previously, the proteins separated by polyacrylamide gel electrophoresis, and transferred to membranes for immunoblotting with antibody to phosphorylated ERK 1/2.

HMVEC-d cells = assay: Microarray analysis (Affymetrix Human U133 Plus 2.0) of HMVEC-d cells; format: cell-based
Experimental: Microarray Analysis Ten micrograms of total RNA from HMVEC-d cells was amplified and biotin-labeled according to GeneChip Expression Analysis Technical Manual (Affymetrix, Santa Clara, Calif.). Fragmented cRNA was hybridized with human gene chip U133 PLUS 2 (Affymetrix); chips were washed and stained with streptavidin R-phycoerythrin (Molecular Probes, Eugene, Oreg.). The chips were scanned and the data were analyzed with Microarray Suite and Data Mining Tool (Affymetrix).
To further identify possible mechanisms of tetrac inhibition of VEGF-stimulated angiogenesis, microarray analysis was performed using the Human U133 Plus 2.0 array from Affymetrix. HDMEC cells were incubated with VEGF at 50 ng/ml for 24 hours with and without Tetrac (3 uM). […] As shown in FIGS. 49A-C, Angiopoietin-like 1 (ANGPTL-1, probe set ID # 231773) expression was increased 5.9 fold following VEGF treatment.

[4] = system: citrated human whole blood; assay: Thromboelastography (TEG) clot dynamics; details: 25 ng TF + 2.25 mM Ca^+2 or 10 mM Ca^+2; n = 4
Experimental: Thromboelastography (TEG) has been used in various hospital settings since its development by Hartert in 1948. The principle of TEG is based on the measurement of the physical viscoelastic characteristics of blood clot. Clot formation was monitored at 37° C. in an oscillating plastic cylindrical cuvette (“cup”) and a coaxially suspended stationary piston (“pin”) with a 1 mm clearance between the surfaces, using a computerized Thrombelastograph (TEG Model 3000, Haemoscope, Skokie, Ill.). The cup oscillates in either direction every 4.5 seconds, with a 1 second mid-cycle stationary period; resulting in a frequency of 0.1 Hz and a maximal shear rate of 0.1 per second. The pin is suspended by a torsion wire that acts as a torque transducer. […] The torque experienced by the pin (relative to the cup's oscillation) is plotted as a function of time (FIG. 58).
TEG assesses coagulation by measuring various parameters such as the time latency for the initial initiation of the clot (R), the time to initiation of a fixed clot firmness (k) of about 20 mm amplitude, the kinetic of clot development as measured by the angle (α), and the maximum amplitude of the clot (MA). The parameter A measures the width of the tracing at any point of the MA. Amplitude A in mm is a function of clot strength or elasticity. The amplitude on the TEG tracing is a measure of the rigidity of the clot; the peak strength or the shear elastic modulus attained by the clot, G, is a function of clot rigidity and can be calculated from the maximal amplitude (MA) of the TEG tracing.
The following parameters were measured from the TEG tracing: • R, the reaction time (gelation time) represents the latent period before the establishment of a 3-dimensional fibrin gel network (with measurable rigidity of about 2 mm amplitude). • Maximum Amplitude (MA, in mm), is the peak rigidity manifested by the clot. • Shear elastic modulus or clot strength (G, dynes/cm^2) is defined by:
Blood was drawn from consenting volunteers under a protocol approved by the Human Investigations Committee of William Beaumont Hospital. Using the two syringe method, samples were drawn through a 21 gauge butterfly needle and the initial 3 ml blood was discarded.

[5] = hormone 0.1 uM alone, pretreated FGF2 1.25 ng/ml + VEGF […], day 3
[6] = VEGF 50 ng/ml, 24 hours, vs untreated

Molecule: N[C@@H](Cc1cc(I)c(Oc2ccc(O)c(I)c2)c(I)c1)C(=O)O [T3, 3,5,3′-triiodo-L-thyronine]
- stimulation of angiogenesis ([1]; 0.01-0.1 μM): significant (P<0.01) stimulation of angiogenesis
- Mean Tube Vessel Length (mm) ± SD ([1]; FGF2 25 ng + VEGF 50 ng, T3 20 ng, T4 23 ng, T4-agarose 23 ng, pre-treated with FGF2 1.25 ng/ml + VEGF […]): 1.88 ± 0.21 mm
- Mean number of Migrated cells ± SD [1, 5]: 188 ± 15
- Mean vessel Length (mm) ± SD [1, 5]: 0.91 ± 0.04 mm

Molecule: O=C(O)Cc1cc(I)c(Oc2ccc(O)c(I)c2)c(I)c1 [TRIAC, triiodothyroacetic acid]
- block of the pro-angiogenic effect of T4 or T4-agarose ([2]; CAM model): 100%

Molecule: COc1cccc(-c2cc(=O)c3ccccc3o2)c1N [PD 98059]
- inhibition of the pro-angiogenesis action of T3, T4 or T4-agarose ([1]; tetrac 0.1 μM, PD 98059, XT199): significantly (P<0.01) blocked
- inhibition of T4-induced ERK1/2 activation [3]: inhibited; also recorded: blocked by both inhibitors
- inhibition of angiogenesis induced by FGF2 (1 μg/mL) ([2]; PD 98059): effectively blocked; also recorded: also inhibited
- inhibition of angiogenesis stimulated by T4 (0.1 μmol/L) and T3 (1 nmol/L) together ([2]; PD 98059 3 μmol/L): completely blocked; also recorded: fully inhibited
- block of the pro-angiogenesis effect of T4 or FGF2 ([2]; PD 98059 at 0.8-8 μg): totally blocked

Molecule: VEGF
- ANGPTL-3 expression (HMVEC-d cells; VEGF 50 ng/ml, 24 hours): unaffected
- ANGPTL-1 expression, fold increase (HMVEC-d cells; [6]): 5.9 fold
- ANGPTL-2 expression, fold increase (HMVEC-d cells; [6]): 1.6 fold
- MMP-15 expression, fold increase (HMVEC-d cells; VEGF treatment): 5.1 fold
- MMP-19 expression, fold increase (HMVEC-d cells; VEGF treatment): 2.9 fold
- MMP-24 expression (HMVEC-d cells; VEGF treatment): slightly decreased

Molecule: [Ca+2].[Cl-].[Cl-] [Ca^+2, Calcium Chloride]
- K [4]: 7.0 ± 0.7 min
- MA (mm) [4]: 56.5 ± 2.2 mm
- r [4]: 14.5 ± 2.5 min
- α (angle) [4]: 47.3 ± 2.7 angle

Molecule: FGF2: human recombinant FGF2, standard proangiogenic agent
- fold increase in angiogenesis index ([2]; 1 μg of FGF2): 2-3 fold
- fold increase in blood vessel branch formation ([2]; FGF2 1 μg/ml on filter disk, vs PBS): 2.2 fold and 2.4 fold
- fold increase in angiogenesis ([2]; FIG. 4 experiment with FGF2 antibody, concentration not given, 3 experiments): 2 fold

Molecule: CCCc1cc(=O)[nH]c(=S)[nH]1 [PTU, 6-N-propyl-2-thiouracil]
- effect on angiogenesis produced by T4 [2]: no inhibitory effect
- effect on angiogenesis produced by T4 ([2]; listed as Propylthiouracil): has no effect
